Laboratory results reported in the NIST ThermoML archive (doi:10.1021/je200302h).
Numbers after ± are expanded uncertainties.

Settings: Liquid, Drop weight

O=C=O [carbon dioxide] + O
interfacial tension [mN/m]
Settings	8380 kPa	10440 kPa	13890 kPa	17340 kPa	20790 kPa
298.15 K	25.65 ± 0.42	25.15 ± 0.28	24.85 ± 0.29	24.9 ± 0.3	25 ± 1
313.15 K	22.23 ± 0.58	22.16 ± 0.6	23.33 ± 0.46	23.41 ± 0.46	25.07 ± 0.53
323.15 K	–	23.05 ± 0.57	22.74 ± 0.68	24.27 ± 0.78	23.5 ± 0.4
333.15 K	–	–	23.36 ± 0.51	23.58 ± 0.69	22.8 ± 0.6
